“Also recorded” adds a separate entry of the source. Like-named read-outs stand apart in the source and are kept apart here.
What was measured:
MN axons = type: cell-based, mouse
HB9::GFP MN axons = type: cell-based, mouse
[1] = tested on: TIA1, G3BP1 and TDP43 granules in E12.5 motor neurons; assay: Stress granule protein granules in neurites of arsenite-treated motor neurons; type: cell-based, mouse
Source text: To further evaluate whether mutant TIA1 and TDP43 protein aggregates are affected by G3BP1 190-208 peptide, the inventors expressed the mutant proteins in embryonic motor neurons and assessed granules formed in neurites with or without arsenite treatment either in the presence of G3BP1 190-208 or control 168-189 peptide.
FIG. 6: Cell permeable G3BP1 190-208 peptide decreases granules formed by endogenous TIA1 and TDP43 and exogenous TDP43 and TIA1 mutants in motor neurons after sodium arsenite exposure. (A) Embryonic motor neurons isolated from E12.5 mouse embryos were exposed to sodium arsenite (0.5 mM) for 30 minutes and then treated with 10 μM 190- 208 or […] peptide. After fixation endogenous TIA1 was visualized by immunostaining. The number of TIA1 granules greater than 2 μm^2 per 100 μm of neurite were measured. (B) E12.5 motor neurons were treated as described in (A) and immunostaining was used to detect endogenous G3BP1 protein. The number of G3BP1 granules greater than 2 μm^2 per 100 μm of neurite were measured. […] (C) E12.5 motor neurons expressing TIA1-GFT or ALS/FTD-associated mutants TIA1-A381T, TIA1-E384K were treated with sodium arsenite (0.5 mM) for 30 minutes followed by treatment with either 10 μM 190-208 G3BP1 or 168-189 control peptide. The number of cells containing TIA1-GFP puncta were measured 2 μm^2 per 100 μm of neurite and results are reported relative to non-treated controls. The number of TIA1-GFP granules in neurites decreased for WT and ALS/FTD mutants after treatment with 190-208 G3BP1 as compared to the 168-189 control peptide treated cells. (I)) E12.5 motor neurons expressing flag-tagged wildtype TDP43 or ALS-associated mutants TDP43-M337V and TDP43-Q331.K were treated with sodium arsenite (0.5 mM) for 30 minutes followed by treatment with either 10 μM 190-208 G3BP1 or 168189 control peptide. Flag-TDP43 was detected by immunostaining using the anti-flag-antibody. The number of flag-TDP43 granules greater than 2 μm^2 were measured per 100 μm of neurite and the results are reported relative to non-treated controls. The number of Flag-TDP43 granules in neurites were decreased after treatment with 190-208 G3BP1 peptide as compared to the 168-189 control peptide in both WT and ALS/FTD mutants expressing cells. ([…] over 3 cultures; by two-way ANOVA with Tukey HSD post-hoc),

[2] = tested on: wild-type or ALS/FTD-associated mutant (P362L, A381T, E384K) TIA1-GFP in HEK cells; assay: TIA1-GFP aggregates in arsenite-treated HEK cells; type: cell-based
Source text: The inventors tested whether the G3BP1 190-208 peptide would prevent the aggregation of granules formed by TIA1 and TDP43 mutant proteins associated with ALS and FTD. […] Next, we treated HEK cells expressing wild-type and or ALS/FTD-associated mutants (P362L, A381T, or E384K)TIA1, with arsenite a potent inducer of SG aggregation, in addition to either G3BP1 190-208 peptide or control G3BP1 168-189 peptide.
FIG. 5: Cell permeable G3BP1 190-208 peptide decreases TIA1-GFP puncta formed due to expression of disease causing TIA1 mutants. (A) Representative images of HEK cells transfected with GFP-tagged wild-type or ALS/FTD-associated mutants (P362L, A381T, or E384K) TIA1. Arrows show TIA1-GFP puncta. (B) Quantification of the percentage of cells with TIA1-GFP puncta greater than 2 μm^2 area in transfected cells relative TIA1-WT-GFP expressing cells. Consistent with previous studies, ALS/FTD- associated TIA1 mutants show increased number of TIA1-GFP puncta as compared to WT-TIA1. (C) HEK cells expressing TIA1-GFP or ALS/FTD-associated mutants TIA1-P362L, TIA1-A381T, TIA1-E384K were treated with sodium arsenite (0.5 mM) for 30 minutes followed by treatment with either 10 μM 190-208 G3BP1 or 168-189 control peptide. The number of cells containing TIA1-GFP puncta were measured and results are reported relative to non-treated controls. Number of HEK cells with TIA1-GFP granules both for WT and ALS/FTD mutants decreased after treatment with 10 μM 190-208 G3BP1 as compared to the 168-189 control peptide treated cells. (N≥90 over 3 cultures; by two-way ANOVA with Tukey HSD post-hoc). Scale bar: 20 μm.

DRG neurons = assay: Axon growth in dissociated DRG cultures; type: cell-based, rat; conditions: 10 μM Tat-fused peptide added to DRG cultures immediately after plating
Experimental: Cell culture. For primary neuronal cultures, L4-5 DRG were harvested in Hybernate-A medium (BrainBits) and then dissociated as described. After centrifugation and washing in DMEM/F12 (Life Technologies), cells were resuspended in DMEM/F12, 1×N1 supplement (Sigma), 10% fetal bovine serum (Hyclone), and 10 μM cytosine arabinoside (Sigma). Dissociated DRGs were plated immediately on laminin/poly-L-lysine-coated coverslips or transfected (see below) and then plated on coated coverslips.
[…] Neurite outgrowth was assessed 24 h after addition of peptides. For the cortical cultures, 10 μM peptide was applied to the axonal compartment at 3 d in vitro (DIV) and axonal growth was assessed at 6 DIV. For iMotor neurons, 20 μM peptides were immediately added and neurite growth was assessed 24 h later.
For neurite outgrowth, images from 60 h DRG cultures were analyzed for neurite outgrowth using WIS-Neuromath. Axon morphology was visualized using GFP and/or NF immunofluorescence as described. Differentiated hiPSC neuron image acquisition and neurite length quantification was performed using Arrayscan XTI (Thermo Fisher).

[3] = tested on: G3BP1-mCherry aggregates in DRG axons; assay: Live cell imaging of G3BP1-mCherry granules; type: cell-based, rat; conditions: 10 μM peptide, 15 min
Experimental: Live cell imaging for G3BP1-mCherry granules. DRG neurons were transfected with G3BP1-mCherry, and 36 h later distal axons were imaged using Leica SP8X confocal microscope with environmental chamber maintained at 37° C., 5% CO2 (with 63×/1.4 NA oil immersion objective). G3BP1-mCherry signals were imaged as single optical planes in the axon shaft every 2 s for 100 frames (at 540 nm excitation and 23% white light laser power; 565-597 nm emission). To study the effect of the G3BP1 190-208 or 168-189 peptide, 10 μM FITC-conjugated peptide was added to the media and 15 min later imaging was continued.
For quantitation of G3BP1-mCherry aggregates density and size, a 100 μm of the axon shaft was considered (≥200 μm from cell body). Thresholding was applied to acquired image sequences using ImageJ to generate binary masks.
ImageJ particle analyzer was used for analysis. G3BP1 aggregates with area≥1 μm^2 were considered as SG-like structures. For analyzing the G3BP1 aggregate velocity, ImageJ Trackmate plug-in was used.

[4] = tested on: G3BP1 aggregates in E12.5 motor neurons; assay: Endogenous G3BP1 aggregates in MPP+-treated motor neurons; type: cell-based, mouse; conditions: 100 μM MPP+ alone vs control
Experimental: Previous studies have shown that, exposure of midbrain neurons results in formation of stress granules. To test whether treatment of motor neurons with mitotoxin MPP+ results in the formation of stress granules the inventors stained the MPP+-treated neurons for G3BP1 protein.
(A) Quantification of mitotoxin/neurotoxin MPP+-induced degeneration of DIV7 E12.5 motor neuron neurites after exposure of cultures to 100 μM MPP+ and either 10 μM 190-208 G3BP1 or 168-189 control peptide. As controls, neurons treated with solvents were used. (B) Representative images of G3BP1 (green) and NF-labeled (red) E12.5 motor neurons under control or after treatment with 100 μM MPP+ [scale bar=10 μm]. (C) distribution of sizes of endogenous G3BP1 aggregate per 100 μm neurite is shown as indicated bins from motor neurons cultures as treated in (B). (N≥80 neurites over three repetitions; by one-way ANOVA with Tukey HSD post-hoc). […] (D) Endogenous G3BP1 aggregate sizes per 100 μm neurite indicated as bins for motor neurons either untreated or treated with MPP+ alone or with addition of 10 μM 190-208 G3BP1 or 168-189 control peptide. […] (N≥90 over 3 cultures; by one-way ANOVA with Tukey HSD post-hoc)

[5] = tested on: G3BP1, TIA1, FMRP, FXR, TDP43 and FUS-TLS aggregates in E18 midbrain neurons; assay: RNA binding protein aggregates along axons of MPP+-treated midbrain neurons; type: cell-based, rat; conditions: 100 μM MPP+ 6 hours
Experimental: FIGS. 14A-14F show PD-causing MPP^+ increases RNA binding protein aggregation. Representative confocal images for G3BP1 (magenta), FMRP (green), FXR (red) and neurofilament immunoreactivity along axons for E18 midbrain neuron cultures (7 DIV)±100 μM MPP^+ for 6 hours are shown in FIG. 14A. […] Quantifications for colocalization of FMRP, FXR, TDP43, FUS-TLS and TIA1 with G3BP1 in axons of E18 midbrain neurons treated. as in FIG. 14A are shown as average Pearson's coefficient±SEM shown in FIG. 14E.

[6] = tested on: G3BP1 aggregates in midbrain neurons; assay: Endogenous G3BP1 aggregates in MPP+-treated midbrain neurons; type: cell-based, rat; conditions: MPP+ alone
Source text: Given that the G3BP1 190-208 peptide prevents degeneration induced by treatment with neurotoxins such as MPP+ and Aβ oligomer and decreases G3BP1 aggregates formed due MPP+ and Aβ treatment.
(A) Size of endogenous G3BP1 aggregates per 100 μm of neurite is shown as indicated bins from midbrain cultures under control conditions and after treatment with MPP+alone or with 190-208 G3BP1 or 168-189 peptides. (B) Size distribution of endogenous G3BP1 aggregates per 100 μm of neurite is shown from cortical neurons treated with 1 μM Aβpeptide or with […] 190-208 G3BP1 or 168-189 control peptide. Non-treated neurons were used as a control. […] (N≥90 over 3 cultures; by two-way ANOVA with Tukey HSD post-hoc).

[7] = applied exclusively in axons, NaAsO2 250 μM, Anisomycin 40 μM, Cycloheximide 150 μM
[8] = local axonal administration, Anisomycin 40 μM, Cycloheximide 150 μM, NaAsO2 250 μM

## C[C@@H]1C[C@@H]([C@H](O)CC2CC(=O)NC(=O)C2)C(=O)[C@@H](C)C1 [Cycloheximide]
MN axons; [7]
  axonal translation (OPP puncta): major decrease in axonal translation
HB9::GFP MN axons; [8]
  mitochondrial membrane potential (TMRE): notable reduction in mitochondrial membrane potential

## DDSGTFYDQTVSNDLEEHLEEP-YGNKKNNQNNN [168-189 peptide, reference compound]
[1]; WT and mutant TIA1-GFP, sodium arsenite 0.5 mM 30 minutes, then 10 μM peptide
  number of large TIA1-GFP granules (>2 μm^2) in neurites: no such effect
[2]; sodium arsenite 0.5 mM 30 minutes, then 10 μM peptide, WT and mutant TIA1
  size of TIA1 aggregates: no such change in aggregate size
DRG neurons
  axon length: lacked activity
[3]
  density of axonal G3BP1-mCherry aggregates along 100 μm axon: no change in SG density
  size of G3BP1-mCherry aggregates (SG-like structures): modest but insignificant decrease in SG size

## sodium arsenite [NaAsO2, reference compound]
[1]; arsenite alone
  size of endogenous TIA1 and G3BP1 aggregates: increase in the size of endogenous TIA1 and G3BP1 aggregates
[1]; arsenite alone, WT and mutant TIA1-GFP
  number of larger TIA1-GFP granules (>2 μm^2): increase in the number of larger granules
[1]; arsenite alone, WT and mutant flag-TDP43
  number of large flag-TDP43 aggregates (>2 μm^2): increased number of large flag-TDP43 aggregates
[2]; sodium arsenite 0.5 mM alone, WT and mutants
  size of TIA1 aggregates: increases size of TIA1 aggregates
MN axons
  axonal translation (OPP puncta): major decrease in axonal translation
HB9::GFP MN axons
  mitochondrial membrane potential (TMRE): notable reduction in mitochondrial membrane potential

## COc1ccc(C[C@H]2NC[C@H](O)[C@H]2OC(C)=O)cc1 [Anisomycin]
MN axons; [7]
  axonal translation (OPP puncta): major decrease in axonal translation
HB9::GFP MN axons; [8]
  mitochondrial membrane potential (TMRE): notable reduction in mitochondrial membrane potential

## EESEEEVEEPEENQQSPEVV-YGNKKNNQNNN (EESEEEVEEPEENQQSPEVVYGNKKNNQNNN; listed as Rattus norvegicus) [147-166, cell-permeable Tat fusion peptide corresponding to residues 147-166 of rat G3BP1]
DRG neurons
  axon length: increased axon length

## C[n+]1ccc(-c2ccccc2)cc1 [MPP+, 1-methyl-4-phenylpyridinium, reference compound]
[4]
  endogenous G3BP1 aggregates: increase in G3BP1 aggregates; also recorded: formation of larger G3BP1 granules
[5]
  TIA1, FMRP, FXR, TDP43 and FUS-TLS colocalization with G3BP1: significant increase
  aggregate sizes of G3BP1, TIA1, FMRP, FXR, TDP43 and FUS-TLS along axons: significantly increases the aggregate sizes
  overall levels of these proteins: without any change in overall levels
[6]
  endogenous G3BP1 aggregates: increase in endogenous G3BP1 aggregates

Reference: patent US20230190887A1, “TARGETING G3BP AGGREGATION TO PREVENT NEURODEGENERATION” (priority 2019, published 2023)
